Assay results taken from ChEMBL document CHEMBL2434824, “Synthesis, characterization and molecular docking studies of some new 1,3,4-oxadiazolines bearing 6-methylpyridine moiety for antimicrobial property” (Eur J Med Chem, 2013).
Activity calls are given as the source filed them. The calls are words filed in the database; no cut-off is given here.

System: Aspergillus flavus
Assay: Antifungal activity against Aspergillus flavus at 0.5 to 1 mg/ml at 25 degC after 3 days by well plate method
Type: functional, organism-based

Q: For `OC(Cn1cncn1)(Cn1cncn1)c1ccc(F)cc1F`, which Activity is on record?
A: Active

Q: With `CC(=O)N1N=C(c2ccc(C)nc2)OC1(C)c1cccc(Br)c1` (stereo unspecified) as the molecule, how does the Activity read?
A: Active

Q: Which Activity does the source give for `CC(=O)N1N=C(c2ccc(C)nc2)OC1c1ccc(Br)cc1` (stereo unspecified) here?
A: Active

Q: Which Activity does the source give for `CC(=O)N1N=C(c2ccc(C)nc2)OC1c1ccc(Cl)cc1Cl` (stereo unspecified) here?
A: Active

Q: For `CC(=O)N1N=C(c2ccc(C)nc2)OC1c1cccc(Cl)c1F` (stereo unspecified), which Activity is on record?
A: Active

Q: Which Activity does the source give for `CC(=O)N1N=C(c2ccc(C)nc2)OC1(C)c1sccc1Br` (stereo unspecified) here?
A: Active

System: Radical scavenging activity
Assay: Antioxidant activity assessed as DPPH radical scavenging activity at 100 ug after 10 mins by UV-Visible spectrophotometry
Type: functional

Q: For `CC(=O)N1N=C(c2ccc(C)nc2)OC1(C)c1ccc([N+](=O)[O-])cc1` (stereo unspecified), which Activity is on record?
A: 52.4%

Q: With `CC(=O)N1N=C(c2ccc(C)nc2)OC1(C)c1cccc(Br)c1` (stereo unspecified) as the molecule, how does the Activity read?
A: 32.9%

Q: For `CC(=O)N1N=C(c2ccc(C)nc2)OC1(C)c1ccc(-c2ccccc2)cc1` (stereo unspecified), which Activity is on record?
A: 47.7%

Q: For `CC(=O)N1N=C(c2ccc(C)nc2)OC1c1ccc(O)c(O)c1` (stereo unspecified), which Activity is on record?
A: 13.3%

Q: Which Activity does the source give for `CC(=O)N1N=C(c2ccc(C)nc2)OC1c1ccc(Br)cc1` (stereo unspecified) here?
A: 65.5%

Q: For `CC(=O)N1N=C(c2ccc(C)nc2)OC1c1ccc(Cl)cc1Cl` (stereo unspecified), which Activity is on record?
A: 62.3%

Q: For `CC(=O)N1N=C(c2ccc(C)nc2)OC1c1cccc(Cl)c1F` (stereo unspecified), which Activity is on record?
A: 37.3%

Q: For `CC(=O)N1N=C(c2ccc(C)nc2)OC1c1ccc(-c2ccccc2)cc1` (stereo unspecified), which Activity is on record?
A: 15.6%

Q: With `COc1ccc2cc(C3OC(c4ccc(C)nc4)=NN3C(C)=O)ccc2c1` (stereo unspecified) as the molecule, how does the Activity read?
A: 27.5%

Q: For `Cc1cc(C(C)(C)C)c(O)c(C(C)(C)C)c1`, which Activity is on record?
A: 92.4%

Q: Which Activity does the source give for `COc1ccc(C2OC(c3ccc(C)nc3)=NN2C(C)=O)c(OC)c1` (stereo unspecified) here?
A: 24.3%

Q: Which Activity does the source give for `CC(=O)c1ccc(C2(C)OC(c3ccc(C)nc3)=NN2C(C)=O)cc1` (stereo unspecified) here?
A: 42.3%

Q: For `CC(=O)N1N=C(c2ccc(C)nc2)OC1(C)c1sccc1Br` (stereo unspecified), which Activity is on record?
A: 44.2%

Q: Which Activity does the source give for `CC(=O)N1N=C(c2ccc(C)nc2)OC1c1ccc(Cl)cc1` (stereo unspecified) here?
A: 49.2%

Q: With `CC(=O)N1N=C(c2ccc(C)nc2)OC1c1cccs1` (stereo unspecified) as the molecule, how does the Activity read?
A: 12%

System: Pseudomonas aeruginosa
Assay: Antibacterial activity against Pseudomonas aeruginosa ATCC 27853 at 0.5 to 1 mg/ml at 37 degC after 18 hrs by well plate method
Type: functional, organism-based

Q: Which Activity does the source give for `CC(=O)N1N=C(c2ccc(C)nc2)OC1(C)c1ccc([N+](=O)[O-])cc1` (stereo unspecified) here?
A: Active

Q: With `CC(=O)N1N=C(c2ccc(C)nc2)OC1(C)c1cccc(Br)c1` (stereo unspecified) as the molecule, how does the Activity read?
A: Active

Q: Which Activity does the source give for `CC(=O)N1N=C(c2ccc(C)nc2)OC1c1ccc(Br)cc1` (stereo unspecified) here?
A: Active

Q: For `CC(=O)N1N=C(c2ccc(C)nc2)OC1c1ccc(Cl)cc1Cl` (stereo unspecified), which Activity is on record?
A: Active

Q: Which Activity does the source give for `CN[C@@H]1[C@H](O[C@H]2[C@H](O[C@H]3[C@H](O)[C@@H](O)[C@H](N=C(N)N)[C@@H](O)[C@@H]3N=C(N)N)O[C@@H](C)[C@]2(O)C=O)O[C@@H](CO)[C@H](O)[C@H]1O` here?
A: Active

Q: For `CC(=O)N1N=C(c2ccc(C)nc2)OC1c1cccc(Cl)c1F` (stereo unspecified), which Activity is on record?
A: Active

Q: Which Activity does the source give for `CC(=O)N1N=C(c2ccc(C)nc2)OC1(C)c1sccc1Br` (stereo unspecified) here?
A: Active

Q: Which Activity does the source give for `CC(=O)N1N=C(c2ccc(C)nc2)OC1c1ccc(Cl)cc1` (stereo unspecified) here?
A: Active

System: Staphylococcus aureus
Assay: Antibacterial activity against Staphylococcus aureus ATCC 25923 at 0.5 to 1 mg/ml at 37 degC after 18 hrs by well plate method
Type: functional, organism-based

Q: Which Activity does the source give for `CC(=O)N1N=C(c2ccc(C)nc2)OC1(C)c1ccc([N+](=O)[O-])cc1` (stereo unspecified) here?
A: Active

Q: With `CC(=O)N1N=C(c2ccc(C)nc2)OC1(C)c1cccc(Br)c1` (stereo unspecified) as the molecule, how does the Activity read?
A: Active

Q: For `CC(=O)N1N=C(c2ccc(C)nc2)OC1c1ccc(Br)cc1` (stereo unspecified), which Activity is on record?
A: Active

Q: With `CC(=O)N1N=C(c2ccc(C)nc2)OC1c1ccc(Cl)cc1Cl` (stereo unspecified) as the molecule, how does the Activity read?
A: Active

Q: With `CN[C@@H]1[C@H](O[C@H]2[C@H](O[C@H]3[C@H](O)[C@@H](O)[C@H](N=C(N)N)[C@@H](O)[C@@H]3N=C(N)N)O[C@@H](C)[C@]2(O)C=O)O[C@@H](CO)[C@H](O)[C@H]1O` as the molecule, how does the Activity read?
A: Active

Q: With `CC(=O)N1N=C(c2ccc(C)nc2)OC1c1cccc(Cl)c1F` (stereo unspecified) as the molecule, how does the Activity read?
A: Active

Q: With `CC(=O)N1N=C(c2ccc(C)nc2)OC1(C)c1sccc1Br` (stereo unspecified) as the molecule, how does the Activity read?
A: Active

Q: With `CC(=O)N1N=C(c2ccc(C)nc2)OC1c1ccc(Cl)cc1` (stereo unspecified) as the molecule, how does the Activity read?
A: Active

System: not listed separately
Assay: Antifungal activity against Chrysosporium keratinophilum at 0.5 to 1 mg/ml at 25 degC after 3 days by well plate method
Type: functional

Q: For `OC(Cn1cncn1)(Cn1cncn1)c1ccc(F)cc1F`, which Activity is on record?
A: Active

Q: With `CC(=O)N1N=C(c2ccc(C)nc2)OC1(C)c1cccc(Br)c1` (stereo unspecified) as the molecule, how does the Activity read?
A: Active

Q: For `CC(=O)N1N=C(c2ccc(C)nc2)OC1c1ccc(Br)cc1` (stereo unspecified), which Activity is on record?
A: Active

Q: Which Activity does the source give for `CC(=O)N1N=C(c2ccc(C)nc2)OC1c1ccc(Cl)cc1Cl` (stereo unspecified) here?
A: Active

Q: With `CC(=O)N1N=C(c2ccc(C)nc2)OC1c1cccc(Cl)c1F` (stereo unspecified) as the molecule, how does the Activity read?
A: Active

Q: Which Activity does the source give for `CC(=O)N1N=C(c2ccc(C)nc2)OC1(C)c1sccc1Br` (stereo unspecified) here?
A: Active

System: Escherichia coli
Assay: Antibacterial activity against Escherichia coli ATCC 25922 at 0.5 to 1 mg/ml at 37 degC after 18 hrs by well plate method
Type: functional, organism-based

Q: Which Activity does the source give for `CC(=O)N1N=C(c2ccc(C)nc2)OC1(C)c1ccc([N+](=O)[O-])cc1` (stereo unspecified) here?
A: Active

Q: For `CC(=O)N1N=C(c2ccc(C)nc2)OC1(C)c1cccc(Br)c1` (stereo unspecified), which Activity is on record?
A: Active

Q: For `CC(=O)N1N=C(c2ccc(C)nc2)OC1c1ccc(Br)cc1` (stereo unspecified), which Activity is on record?
A: Active

Q: Which Activity does the source give for `CC(=O)N1N=C(c2ccc(C)nc2)OC1c1ccc(Cl)cc1Cl` (stereo unspecified) here?
A: Active

Q: With `CN[C@@H]1[C@H](O[C@H]2[C@H](O[C@H]3[C@H](O)[C@@H](O)[C@H](N=C(N)N)[C@@H](O)[C@@H]3N=C(N)N)O[C@@H](C)[C@]2(O)C=O)O[C@@H](CO)[C@H](O)[C@H]1O` as the molecule, how does the Activity read?
A: Active

Q: For `CC(=O)N1N=C(c2ccc(C)nc2)OC1c1cccc(Cl)c1F` (stereo unspecified), which Activity is on record?
A: Active

Q: Which Activity does the source give for `CC(=O)N1N=C(c2ccc(C)nc2)OC1(C)c1sccc1Br` (stereo unspecified) here?
A: Active

Q: For `CC(=O)N1N=C(c2ccc(C)nc2)OC1c1ccc(Cl)cc1` (stereo unspecified), which Activity is on record?
A: Active
